Reference: PubChem BioAssay AID248 (DTP/NCI, 2004)
Where “and” joins values, the source holds several entries; their conditions need not be identical. Identical values can stand only once. Inconclusive results and toxic doses are left out. Cut-off read from the data, not from the text of the source: active = T/C of 150% or more; inactive = T/C below 125%.

Test system: L1210 leukemia ip in BDF1 mice, survival T/C
Assay: NCI In Vivo Anticancer Drug Screen. Data for tumor model L1210 Leukemia (intraperitoneal) in B6D2F1 (BDF1) mice
Settings: endpoint: mean survival time, higher = longer survival
Summary of the method: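 Antitumor effect is assessed in tumor-bearing animals. Survival in the compound arm is compared with a vehicle-dosed control arm and expressed as their quotient.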

[1] = dose: 100.0 mg/kg/injection, schedule: Q01DX009 (ip), vehicle: Klucel (hydroxypropylcellulose) (HPC)
[2] = dose: 200.0 mg/kg/injection, schedule: Q01DX009 (ip), vehicle: Klucel (hydroxypropylcellulose) (HPC)
[3] = dose: 400.0 mg/kg/injection, schedule: Q01DX009 (ip), vehicle: Klucel (hydroxypropylcellulose) (HPC)
[4] = dose: 100.0 mg/kg/injection, schedule: Q04DX003 (ip), vehicle: Klucel (hydroxypropylcellulose) (HPC)
[5] = dose: 200.0 mg/kg/injection, schedule: Q04DX003 (ip), vehicle: Klucel (hydroxypropylcellulose) (HPC)
[6] = dose: 400.0 mg/kg/injection, schedule: Q04DX003 (ip), vehicle: Klucel (hydroxypropylcellulose) (HPC)
[7] = dose: 100.0 mg/kg/injection, schedule: Q01DX001 (ip), vehicle: Klucel (hydroxypropylcellulose) (HPC)
[8] = dose: 200.0 mg/kg/injection, schedule: Q01DX001 (ip), vehicle: Klucel (hydroxypropylcellulose) (HPC)
[9] = dose: 400.0 mg/kg/injection, schedule: Q01DX001 (ip), vehicle: Klucel (hydroxypropylcellulose) (HPC)
[10] = dose: 100.0 mg/kg/injection, schedule: Q01DX001 (ip), vehicle: saline
[11] = dose: 100.0 mg/kg/injection, schedule: Q01DX009 (ip), vehicle: saline with Tween-80
[12] = dose: 200.0 mg/kg/injection, schedule: Q01DX009 (ip), vehicle: saline with Tween-80
[13] = dose: 400.0 mg/kg/injection, schedule: Q01DX009 (ip), vehicle: saline with Tween-80
[14] = dose: 100.0 mg/kg/injection, schedule: Q04DX003 (ip), vehicle: saline with Tween-80
[15] = dose: 200.0 mg/kg/injection, schedule: Q04DX003 (ip), vehicle: saline with Tween-80
[16] = dose: 400.0 mg/kg/injection, schedule: Q04DX003 (ip), vehicle: saline with Tween-80
[17] = dose: 50.0 mg/kg/injection, schedule: Q01DX009 (ip), vehicle: saline with Tween-80
[18] = dose: 25.0 mg/kg/injection, schedule: Q01DX009 (ip), vehicle: Klucel (hydroxypropylcellulose) (HPC)
[19] = dose: 50.0 mg/kg/injection, schedule: Q01DX009 (ip), vehicle: Klucel (hydroxypropylcellulose) (HPC)

Measured: T/C

Cc1ccc(NC(c2cc(Br)ccc2O)P(=O)(c2ccccc2)c2ccccc2)c([N+](=O)[O-])c1 (stereo not given)
inactive: [1] 93 % of control | [2] 96 % of control | [3] 96 % of control

Nc1ccc(C(=O)Nc2ccc(Nc3ccncc3)cc2)cc1
inactive: [1] 112 % of control | [4] 108 % of control | [2] 106 % of control | [5] 103 % of control | [3] 103 % of control | [6] 106 % of control

CCCCCCCCCCCCCCCCOc1ccc(NC(N)=S)cc1
inactive: dose: 75.0 mg/kg/injection, schedule: Q04DX003 (ip), vehicle: Klucel (hydroxypropylcellulose) (HPC) 101 % of control | [7] 96 % of control | dose: 150.0 mg/kg/injection, schedule: Q04DX003 (ip), vehicle: Klucel (hydroxypropylcellulose) (HPC) 88 % of control | [8] 97 % of control | dose: 300.0 mg/kg/injection, schedule: Q04DX003 (ip), vehicle: Klucel (hydroxypropylcellulose) (HPC) 89 % of control | [9] 93 % of control

CC(Cl)(CCl)C(=O)O (stereo not given)
inactive: dose: 50.0 mg/kg/injection, schedule: Q01DX001 (ip), vehicle: saline 95 % of control | [10] 103 % of control

N#CC(Sc1ccccc1)c1ccccc1 (stereo not given)
inactive: dose: 100.0 mg/kg/injection, schedule: Q04DX002 (ip), vehicle: Klucel (hydroxypropylcellulose) (HPC) 119 % of control | dose: 200.0 mg/kg/injection, schedule: Q04DX002 (ip), vehicle: Klucel (hydroxypropylcellulose) (HPC) 97 % of control | dose: 400.0 mg/kg/injection, schedule: Q04DX002 (ip), vehicle: Klucel (hydroxypropylcellulose) (HPC) 86 % of control

OC(Cc1cc(CC(O)(C(F)(F)F)C(F)(F)F)ncn1)(C(F)(F)F)C(F)(F)F
inactive: [11] 108 % of control | [12] 97 % of control | [13] 97 % of control

CC(=O)N(CC(=O)O)Cc1ccccc1
inactive: dose: 100.0 mg/kg/injection, schedule: Q01DX009 (ip), vehicle: other 100 % of control | dose: 100.0 mg/kg/injection, schedule: Q04DX003 (ip), vehicle: other 95 % of control | dose: 200.0 mg/kg/injection, schedule: Q01DX009 (ip), vehicle: other 105 % of control | dose: 200.0 mg/kg/injection, schedule: Q04DX003 (ip), vehicle: other 101 % of control | dose: 400.0 mg/kg/injection, schedule: Q01DX009 (ip), vehicle: other 105 % of control | dose: 400.0 mg/kg/injection, schedule: Q04DX003 (ip), vehicle: other 106 % of control

O=C(Nc1ccc(F)c([N+](=O)[O-])c1)Nc1cccc2c(O)cccc12
inactive: [1] 101 % of control | [2] 103 % of control | [3] 97 % of control

CCOC(=O)c1ccc(NC(=O)C(Br)C(Br)C(=O)O)cc1 (stereo not given)
inactive: [11] 94 % of control | [14] 101 % of control | [12] 94 % of control | [15] 100 % of control | [13] 97 % of control | [16] 101 % of control

O=C(O)CSCCCc1ccccc1
inactive: [17] 101 % of control | [11] 95 % of control | [14] 102 % of control | [12] 101 % of control | [15] 102 % of control | [16] 102 % of control

C=CCOC(=O)c1ccco1
inactive: [18] 98 % of control | [19] 106 % of control | [1] 94 % of control and 96 % of control

COc1cccc(/C2=C/CCCCCC2)c1
inactive: dose: 50.0 mg/kg/injection, schedule: Q01DX009 (ip), vehicle: acetone 95 % of control | dose: 100.0 mg/kg/injection, schedule: Q01DX009 (ip), vehicle: acetone 107 % of control | dose: 100.0 mg/kg/injection, schedule: Q04DX003 (ip), vehicle: acetone 100 % of control | dose: 200.0 mg/kg/injection, schedule: Q01DX009 (ip), vehicle: acetone 93 % of control | dose: 200.0 mg/kg/injection, schedule: Q04DX003 (ip), vehicle: acetone 105 % of control | dose: 400.0 mg/kg/injection, schedule: Q04DX003 (ip), vehicle: acetone 91 % of control

Cc1cc(Cl)ccc1NC(=O)COc1ccc(Cl)cc1
inactive: [18] 100 % of control | [19] 90 % of control | [1] 88 % of control | [4] 104 % of control | [5] 101 % of control | [6] 92 % of control

CCCCCCCN(CCCCCCC)C(C)C(=O)c1ccc2cc(Br)c3ccccc3c2c1 (stereo not given)
inactive: dose: 100.0 mg/kg/injection, schedule: Q01DX001 (ip), vehicle: alcohol 106 % of control | dose: 200.0 mg/kg/injection, schedule: Q01DX001 (ip), vehicle: alcohol 97 % of control | dose: 400.0 mg/kg/injection, schedule: Q01DX001 (ip), vehicle: alcohol 100 % of control

CNS(=O)(=O)c1ccc(C)cc1
inactive: [1] 104 % of control | dose: 100.0 mg/kg/injection, schedule: Q04DX003 (ip), vehicle: saline 102 % of control | [2] 108 % of control | dose: 200.0 mg/kg/injection, schedule: Q04DX003 (ip), vehicle: saline 100 % of control | [3] 108 % of control | dose: 400.0 mg/kg/injection, schedule: Q04DX003 (ip), vehicle: saline 122 % of control

O=C1NC(=O)C2(CCCCCC2)N1
inactive: [17] 101 % of control | dose: 50.0 mg/kg/injection, schedule: Q04DX003 (ip), vehicle: saline with Tween-80 105 % of control | dose: 100.0 mg/kg/injection, schedule: Q01DX009 (ip), vehicle: saline sonified 90 % of control | [11] 101 % of control | [14] 99 % of control and 111 % of control | dose: 200.0 mg/kg/injection, schedule: Q01DX009 (ip), vehicle: saline sonified 96 % of control | [12] 98 % of control | [15] 100 % of control and 110 % of control | dose: 400.0 mg/kg/injection, schedule: Q01DX009 (ip), vehicle: saline sonified 98 % of control | [16] 106 % of control

COc1ccc(C2=NC(=O)C(C)(C(C)=O)O2)cc1 (stereo not given)
inactive: [10] 93 % of control | dose: 200.0 mg/kg/injection, schedule: Q01DX001 (ip), vehicle: saline 90 % of control | dose: 400.0 mg/kg/injection, schedule: Q01DX001 (ip), vehicle: saline 90 % of control

O=C1CCC(Cc2ccccc2)N1 (stereo not given)
inactive: dose: 100.0 mg/kg/injection, schedule: Q04DX002 (ip), vehicle: saline with Tween-80 97 % of control | dose: 200.0 mg/kg/injection, schedule: Q04DX002 (ip), vehicle: saline with Tween-80 102 % of control | dose: 400.0 mg/kg/injection, schedule: Q04DX002 (ip), vehicle: saline with Tween-80 97 % of control

O=C1OC(=O)C2C3CC(C12)C1C2C=CC(C2)C31 (stereo not given)
inactive: [14] 91 % of control | [15] 95 % of control | [16] 103 % of control

Nc1nc2ncc(CN(C(=O)C(F)(F)F)c3ccc(C(=O)NC(CCC(=O)O)C(=O)O)cc3)nc2c(=O)[nH]1 (stereo not given)
inactive: [7] 100 % of control | [8] 107 % of control | [9] 111 % of control
